Results from US20060025449A1, “Use of N-substituted imino sugars for appetite suppression” (priority 2004, published 2006).
“Also recorded” adds a separate entry of the source.

Assays:
[1] = tested on: lean control mouse; assay: Single intracerebroventricular (ICV) injection, food intake and weight change after 24 hours; format: in vivo; conditions: 2 nmol ICV, 24 hours
Protocol: To investigate a central anorexigenic mechanism for weight loss in mice treated with NB-DNJ, single intracerebro-ventricular (ICV) injections were performed. The mice were assessed for food intake and weight change. Mice were anesthetized with isofluorane (4%) delivered by a vaporiser. Upon achievement of a surgical plane of anaesthesia, the animal was transferred to and secured in a Kopf small animal ultra precise stereotaxic instrument (David Kopf Instruments, Tujunga, Calif., USA) fitted with rat ear bars, mouse adaptor and mouse anaesthesia mask. A small amount of lignocaine local anaesthetic gel was applied to the ear bars to reduce any post-operative discomfort. For the remainder of the procedure, anaesthesia was maintained with 2.5% isofluorane. Lacrilube (Allergan Ltd, High Wycombe, UK) was applied to the mouse's eyes and a subcutaneous injection of the non-steroidal anti-inflammatory drug, Rimadyl (Pfizer, Sandwich, Kent, UK) was given for post-operative analgesia. For ICV injections, a small scalpel incision was made along the midline of the scalp from above the eyes to the occiput. A small hole was drilled in the skull, 1 mm lateral and 0.34 mm posterior to Bregma. 1 μl solution was slowly infused into the lateral ventricle at a depth of 2.25 mm, via a glass needle pipette pulled to a thickness of less than 100 microns at the tip. Mice were injected with 2 nmol compound (NB-DNJ, NB-DGJ or 2-deoxy glucose) in isotonic saline vehicle which was injected into controls. The incision was then closed using VetBond acrylic suture fluid (3M Animal Care Products, St Paul, Minn., USA). The whole procedure from induction of anaesthesia to full recovery lasted less than seven minutes. Mice were allowed free access to a pre-weighed quantity of RM1 pellet diet with water provided ad libitum. 24 hours following ICV injection the mice and remaining diet were weighed. To confirm a central anorectic effect of NB-DNJ, 2 nmol NB-DNJ, NB-DGJ and 2 deoxyglucose were injected directly into the lateral cerebral ventricle of lean control mouse brain (approximately 100 μM final cerebro-ventricular concentration). Mice injected with both saline vehicle and NB-DGJ ate a normal quantity of pellet diet in the following 24 hours (FIG. 9), approximately 5% less in this experiment than that seen in control mice in FIG. 7 (not statistically significant). In contrast, NB-DNJ-injected mice ate 20% less (p<0.02 for both saline and NB-DGJ) and 2-deoxy-glucose injections caused a 10% increase in feeding. 2-deoxy-glucose is a mild appetite stimulant in the short-term. Tsutsui et al., Physiol Behav 31, 493-502. In contrast, NB-DGJ had no effect, as expected.

[2] = tested on: C57B1/6 mice; assay: Effect of imino sugars admixed with diet on growth of normal control mice; format: in vivo, mouse; conditions: 2400 mg/kg/day in diet
Protocol: Control C57B1/6 and C57BL/6O1aHsd-Lep ob mice were obtained from Harlan, UK at five weeks of age. The mice were housed under standard non-sterile conditions and fed a diet of mouse chow pelleted or expanded ground RM1 diet (SDS Ltd, Witham, Essex) with water available ad libitum. For dietary treatment of the mice with NB-DNJ or NB-DGJ, the diet and compound were admixed thoroughly as dry solids, stored at room temperature and used within 7 days. Unless indicated otherwise, mice were treated with a dose of 2400 mg/kg body weight per day, assuming an intake of around 5 g diet/day. Mice were maintained on diet with or without compound for up to six months of age and were weighed at regular intervals during the course of the experiment (see figure legends for group sizes and further experimental details). To study the effect of compound on obese mice, three groups (n=5) of ob/ob mice were monitored from five weeks of age. One group acted as control and were fed ground RM1 diet. At 6 weeks of age, the second group was started on NB-DNJ in the diet, whilst the third group started drug treatment at 12 weeks of age. All mice were then monitored for up to six months of age. […] In the first week of treatment, mice with NB-DNJ in their diet lost about 10% of their total body mass. Over the course of the following weeks, their weight stabilises. By 5 weeks of treatment they weighed 25% less than the controls. They then started to gain weight. However, after 10 weeks they remained 20% less in mass when compared with the age and sex-matched control group.

[3] = tested on: control lean mice; assay: ICV mini-pump implants, long-term intracerebro-ventricular delivery; format: in vivo, mouse; conditions: ICV mini-pump 500 mM, first 24 hours
Protocol: FIG. 11. Control lean mice (n=5 in each group) had icv minipumps (50 mM imino sugar) implanted. Body weight was the monitored at regular intervals over three weeks. See example 7 for further experimental details. The effect of long-term intracerebro-ventricular delivery of imino sugars was determined by the implantation of Alzet mini-osmotic pumps (model 2004, DURECT Corporation, CA, USA) together with the brain infusion kit II which features a high stability low profile cannula. The mini-pumps were loaded with 0.24 ml imino sugar or saline vehicle. The indwelling 28 gauge stainless steel cannula was cut to a length of 2.25 mm. Mice were anaesthetised as for the ICV injections and underwent similar surgical procedures throughout. After drilling a small hole in the cranium at the midline, 2 mm posterior to Bregma, the mini-pump was positioned subcutaneously in the animal's flank and the cannula was implanted. This position and depth ensured delivery to the third cerebral ventricle. The implant was secured to the cranium using VetBond acrylic suture fluid, which was also used to close the surgical wound. The whole procedure lasted less than 9 minutes and mice were fully conscious and recovered within three minutes. For concentration of imino sugar in mini-pumps see figure legends.

Molecule O=CC[C@@H](O)[C@H](O)[C@H](O)CO [2-deoxy-glucose, 2-deoxyglucose] has an increase in feeding [1] of 10%.

For CCCCN1C[C@H](O)[C@@H](O)[C@@H](O)[C@H]1CO [NB-DGJ], the “effect on growth / body weight” value [2] was “did not lose weight; also recorded: no discernible effect”, the “effect on food intake” value [1] was “no effect” and the “ate less than control mice of FIG. 7” value ([1]; not statistically significant) was “approximately 5%”. The “effect on dietary intake” value [3] was “no statistically significant effect” and the “effect on weight change” value [3] was “no statistically significant effect”.
